From article PMC10907603, “MFSD7c functions as a transporter of choline at the blood–brain barrier” (Cell Research, 2024)

Experiments:
Experiment in all cases: [3H]choline uptake in transfected HEK293 cells
Format in all cases: cell-based
MeMfsd7c = biological target: T1, MeMfsd7c (Oryzias latipes, UniProt H2LZ31); settings: 100 µM choline, DMEM with 10% FBS, 37 °C, 1 h; labelled compound
T1 construct: gene flvcr2b
T1 sequence (H2LZ31 1-532): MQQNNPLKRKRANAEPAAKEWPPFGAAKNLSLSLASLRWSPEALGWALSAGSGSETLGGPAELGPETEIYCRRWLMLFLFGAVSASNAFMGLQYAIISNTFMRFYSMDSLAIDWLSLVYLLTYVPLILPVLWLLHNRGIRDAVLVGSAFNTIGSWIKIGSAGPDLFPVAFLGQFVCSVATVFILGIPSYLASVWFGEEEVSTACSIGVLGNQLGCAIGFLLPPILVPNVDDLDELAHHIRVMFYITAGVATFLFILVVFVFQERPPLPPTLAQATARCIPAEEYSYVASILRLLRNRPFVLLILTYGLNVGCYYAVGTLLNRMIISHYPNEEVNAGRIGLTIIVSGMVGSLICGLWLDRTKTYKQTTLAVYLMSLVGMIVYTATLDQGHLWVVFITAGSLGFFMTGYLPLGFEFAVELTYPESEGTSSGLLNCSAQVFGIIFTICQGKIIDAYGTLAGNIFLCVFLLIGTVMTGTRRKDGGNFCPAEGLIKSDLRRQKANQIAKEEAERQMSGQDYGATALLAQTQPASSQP

XeMfsd7c = biological target: T2, XeMfsd7c (Xenopus tropicalis, UniProt Q28EC5); settings: 100 µM choline, DMEM with 10% FBS, 37 °C, 1 h; labelled compound
T2 construct: gene flvcr2
T2 sequence (Q28EC5 1-494): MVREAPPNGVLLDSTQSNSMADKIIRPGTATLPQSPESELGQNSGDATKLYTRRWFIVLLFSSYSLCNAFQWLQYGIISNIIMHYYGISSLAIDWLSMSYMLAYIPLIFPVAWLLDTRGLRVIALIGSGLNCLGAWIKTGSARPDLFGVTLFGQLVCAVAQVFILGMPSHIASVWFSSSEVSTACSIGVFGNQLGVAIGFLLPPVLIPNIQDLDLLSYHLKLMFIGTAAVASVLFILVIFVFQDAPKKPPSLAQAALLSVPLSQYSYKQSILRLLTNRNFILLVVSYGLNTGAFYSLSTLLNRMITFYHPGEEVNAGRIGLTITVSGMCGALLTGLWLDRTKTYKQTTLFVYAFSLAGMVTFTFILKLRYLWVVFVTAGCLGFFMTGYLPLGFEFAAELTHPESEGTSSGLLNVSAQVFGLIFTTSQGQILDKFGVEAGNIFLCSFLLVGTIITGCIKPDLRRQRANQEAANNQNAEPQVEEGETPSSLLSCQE

DaMfsd7c_a = biological target: T3, DaMfsd7c_a (Danio rerio, UniProt A0A0R4ILB2); settings: 100 µM choline, DMEM with 10% FBS, 37 °C, 1 h; labelled compound
T3 construct: gene flvcr2a
T3 sequence (A0A0R4ILB2 1-470): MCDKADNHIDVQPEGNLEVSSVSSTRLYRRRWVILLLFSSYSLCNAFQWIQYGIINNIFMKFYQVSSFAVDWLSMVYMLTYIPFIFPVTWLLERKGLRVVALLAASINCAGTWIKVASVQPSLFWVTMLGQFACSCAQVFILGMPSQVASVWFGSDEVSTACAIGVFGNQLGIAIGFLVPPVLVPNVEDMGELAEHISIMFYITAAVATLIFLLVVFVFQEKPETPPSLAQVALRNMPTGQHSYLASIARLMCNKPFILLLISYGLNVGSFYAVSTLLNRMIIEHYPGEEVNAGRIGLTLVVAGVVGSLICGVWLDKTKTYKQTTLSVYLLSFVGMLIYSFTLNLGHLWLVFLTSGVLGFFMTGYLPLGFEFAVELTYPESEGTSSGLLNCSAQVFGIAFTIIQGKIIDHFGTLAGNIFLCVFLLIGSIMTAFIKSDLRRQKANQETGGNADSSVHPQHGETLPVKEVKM

DaMfsd7c_b = biological target: T4, DaMfsd7c_b (Danio rerio, UniProt A0A8M9Q308); settings: 100 µM choline, DMEM with 10% FBS, 37 °C, 1 h; labelled compound
T4 construct: gene flvcr2b
T4 sequence (A0A8M9Q308 1-485): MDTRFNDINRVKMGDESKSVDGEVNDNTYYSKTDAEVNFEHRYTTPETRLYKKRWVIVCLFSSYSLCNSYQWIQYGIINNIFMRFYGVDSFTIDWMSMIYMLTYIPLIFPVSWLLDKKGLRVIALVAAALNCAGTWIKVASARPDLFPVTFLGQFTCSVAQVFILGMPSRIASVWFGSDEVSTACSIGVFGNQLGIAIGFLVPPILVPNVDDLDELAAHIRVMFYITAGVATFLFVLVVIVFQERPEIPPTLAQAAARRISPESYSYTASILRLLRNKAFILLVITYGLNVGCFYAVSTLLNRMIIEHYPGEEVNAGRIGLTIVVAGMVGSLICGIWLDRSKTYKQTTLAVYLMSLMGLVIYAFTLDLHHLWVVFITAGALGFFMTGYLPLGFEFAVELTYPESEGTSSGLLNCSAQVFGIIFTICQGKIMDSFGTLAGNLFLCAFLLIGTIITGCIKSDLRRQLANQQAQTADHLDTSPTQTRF

[1] = substrate: C[N+](C)(C)CCO; settings: co-expressed human choline kinase A (hChKA), DMEM with 10% FBS, 37 °C, 60 min, labelled compound
Description: [3H]choline uptake in transfected HEK293 cells on hMfsd7c (human MFSD7c, FLVCR2) | The kinetics (Km) and Vmax for choline import by human Mfsd7c under this condition

[2] = substrate: C[N+](C)(C)CCO; settings: co-expressed human choline kinase A (hChKA), DMEM with 10% FBS, 37 °C, 60 min, labelled compound; remark: listed apart in the source
Description: [3H]choline uptake in transfected HEK293 cells on hMfsd7c (human MFSD7c, FLVCR2) | The Km and Vmax for importing choline by S203Y mutant under this condition were […]

## C[N+](C)(C)CCO [choline]
MeMfsd7c
  [3H]choline uptake in transfected HEK293 cells: these MFSD7c orthologs also exhibited choline transport activity
XeMfsd7c
  [3H]choline uptake in transfected HEK293 cells: these MFSD7c orthologs also exhibited choline transport activity
DaMfsd7c_a
  [3H]choline uptake in transfected HEK293 cells: these MFSD7c orthologs also exhibited choline transport activity
DaMfsd7c_b
  [3H]choline uptake in transfected HEK293 cells: these MFSD7c orthologs also exhibited choline transport activity

B1: hMfsd7c (human MFSD7c, FLVCR2) (Homo sapiens) (protein)
chain: MVNEGPNQEESDDTPVPESALQADPSVSVHPSVSVHPSVSINPSVSVHPSSSAHPSALAQPSGLAHPSSSGPEDLSVIKVSRRRWAVVLVFSCYSMCNSFQWIQYGSINNIFMHFYGVSAFAIDWLSMCYMLTYIPLLLPVAWLLEKFGLRTIALTGSALNCLGAWVKLGSLKPHLFPVTVVGQLICSVAQVFILGMPSRIASVWFGANEVSTACSVAVFGNQLGIAIGFLVPPVLVPNIEDRDELAYHISIMFYIIGGVATLLLILVIIVFKEKPKYPPSRAQSLSYALTSPDASYLGSIARLFKNLNFVLLVITYGLNAGAFYALSTLLNRMVIWHYPGEEVNAGRIGLTIVIAGMLGAVISGIWLDRSKTYKETTLVVYIMTLVGMVVYTFTLNLGHLWVVFITAGTMGFFMTGYLPLGFEFAVELTYPESEGISSGLLNISAQVFGIIFTISQGQIIDNYGTKPGNIFLCVFLTLGAALTAFIKADLRRQKANKETLENKLQEEEEESNTSKVPTAVSEDHL
notes: full-length cDNA in pcDNA3.1, transiently expressed in HEK293 cells
[1]
  Km: 100 µM

B2: hMfsd7c (human MFSD7c, FLVCR2) (Homo sapiens; S203Y) (protein)
chain: MVNEGPNQEESDDTPVPESALQADPSVSVHPSVSVHPSVSINPSVSVHPSSSAHPSALAQPSGLAHPSSSGPEDLSVIKVSRRRWAVVLVFSCYSMCNSFQWIQYGSINNIFMHFYGVSAFAIDWLSMCYMLTYIPLLLPVAWLLEKFGLRTIALTGSALNCLGAWVKLGSLKPHLFPVTVVGQLICSVAQVFILGMPSRIAYVWFGANEVSTACSVAVFGNQLGIAIGFLVPPVLVPNIEDRDELAYHISIMFYIIGGVATLLLILVIIVFKEKPKYPPSRAQSLSYALTSPDASYLGSIARLFKNLNFVLLVITYGLNAGAFYALSTLLNRMVIWHYPGEEVNAGRIGLTIVIAGMLGAVISGIWLDRSKTYKETTLVVYIMTLVGMVVYTFTLNLGHLWVVFITAGTMGFFMTGYLPLGFEFAVELTYPESEGISSGLLNISAQVFGIIFTISQGQIIDNYGTKPGNIFLCVFLTLGAALTAFIKADLRRQKANKETLENKLQEEEEESNTSKVPTAVSEDHL
notes: as for B1
[2]
  Km: 1197 µM
